How the values were obtained:
Type in all cases: in vivo
[1] = system: ragweed (common ragweed, Ambrosia artemisiifolia); assay: Test A1 postemergence, ragweed; details: Postemergence
Method in brief: (§1)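 Both timings started from seed in a loam-sand blend. Preemergence pots got a directed soil application immediately; postemergence pots were sprayed when seedlings had one or two leaves and stood 2–10 cm. Each compound was prepared in a non-phytotoxic solvent plus surfactant.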

rice (Oryza sativa) = assay: Test B1 flooded paddy test, rice; details: 250 g ai/ha, Flood, applied to paddy water, 2-leaf stage, visually evaluated after 10 to 14 days
Text: (§2) A dash (-) response means no test result.

[2] = system: Oat, Wild (wild oat, Avena fatua); assay: Test A1 preemergence, Oat, Wild
Method in brief: (§3)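 Pre: seeds in loam/sand blend, directed soil spray. Post: potted plants, same soil, 2–10 cm, 1–2 leaf stage. Chemicals in non-phytotoxic solvent + surfactant for both.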

[3] = system: goosegrass (Eleusine indica); assay: Test A1 postemergence, goosegrass; details: Postemergence
Method in brief: as §1

[4] = system: wheat (Triticum aestivum); assay: Test A1 postemergence, wheat; details: Postemergence
Method in brief: as §1

[5] = system: Pigweed, Palmer (palmer amaranth, palmer pigweed, Amaranthus palmeri); assay: Test A1 preemergence, Pigweed, Palmer
Method in brief: as §3

soybean (Glycine max) [6] = assay: Test A1 preemergence, soybean
Method in brief: as §3

[7] = system: Ryegrass, Italian (Italian ryegrass, Lolium multiflorum); assay: Test A1 postemergence, Ryegrass, Italian; details: Postemergence
Method in brief: as §1

[8] = system: goosegrass (Eleusine indica); assay: Test A1 preemergence, goosegrass
Method in brief: as §3

[9] = system: blackgrass (Alopecurus myosuroides); assay: Test A1 preemergence, blackgrass
Method in brief: as §3

[10] = system: Oat, Wild (wild oat, Avena fatua); assay: Test A1 postemergence, Oat, Wild; details: Postemergence
Method in brief: as §1

[11] = system: ragweed (common ragweed, Ambrosia artemisiifolia); assay: Test A1 preemergence, ragweed
Method in brief: as §3

[12] = system: Pigweed, Palmer (palmer amaranth, palmer pigweed, Amaranthus palmeri); assay: Test A1 postemergence, Pigweed, Palmer; details: Postemergence
Method in brief: as §1

[13] = system: wheat (Triticum aestivum); assay: Test A1 preemergence, wheat
Method in brief: as §3

kochia (Bassia scoparia) [14] = assay: Test A1 postemergence, kochia; details: Postemergence
Method in brief: as §1

corn (Zea mays) [15] = assay: Test A1 preemergence, corn
Method in brief: as §1

soybean (Glycine max) [16] = assay: Test A1 postemergence, soybean; details: Postemergence
Method in brief: as §1

corn (Zea mays) [17] = assay: Test A1 postemergence, corn; details: Postemergence
Method in brief: as §3

[18] = system: Ryegrass, Italian (Italian ryegrass, Lolium multiflorum); assay: Test A1 preemergence, Ryegrass, Italian
Method in brief: as §3

[19] = system: Foxtail, Giant (giant foxtail, Setaria faberi); assay: Test A1 preemergence, Foxtail, Giant
Method in brief: as §3

kochia (Bassia scoparia) [20] = assay: Test A1 preemergence, kochia
Method in brief: as §3

[21] = system: horseweed (Erigeron canadensis); assay: Test A1 postemergence, horseweed; details: Postemergence
Text: Seeds of plant species selected from, blackgrass (Alopecurus myosuroides), corn (Zea mays), Foxtail, Giant (giant foxtail, Setaria faberi), goosegrass (Eleusine indica), kochia (Bassia scoparia), Oat, Wild (wild oat, Avena fatua), Pigweed, Palmer (palmer amaranth, palmer pigweed, Amaranthus palmeri), ragweed (common ragweed, Ambrosia artemisiifolia), Ryegrass, Italian (Italian ryegrass, Lolium multiflorum), soybean (Glycine max), and wheat (Triticum aestivum) were planted into a blend of loam soil and sand and treated preemergence with a directed soil spray using test chemicals formulated in a non-phytotoxic solvent mixture which included a surfactant. At the same time, plants selected from these crop and weed species and also galium (catchweed bedstraw, Galium aparine) and horseweed (Erigeron canadensis) were planted in pots containing the same blend of loam soil and sand and treated with postemergence applications of test chemicals formulated in the same manner. Plants ranged in height from 2 to 10 cm and were in the one- to two-leaf stage for the postemergence treatment. […] A dash (-) response means no test result.

[22] = system: barnyardgrass (Echinochloa crus-galli); assay: Test B1 flooded paddy test, barnyardgrass; details: 250 g ai/ha, Flood, applied to paddy water, 2-leaf stage, visually evaluated after 10 to 14 days
Text: as §2

[23] = system: galium (catchweed bedstraw, Galium aparine); assay: Test A1 postemergence, galium; details: Postemergence
Method in brief: as §1

[24] = system: ducksalad (Heteranthera limosa); assay: Test B1 flooded paddy test, ducksalad; details: 250 g ai/ha, Flood, applied to paddy water, 2-leaf stage, visually evaluated after 10 to 14 days
Text: as §2

[25] = system: blackgrass (Alopecurus myosuroides); assay: Test A1 postemergence, blackgrass; details: Postemergence, 0 to 100 scale (0 no effect, 100 complete control)
Method in brief: as §1

[26] = system: Foxtail, Giant (giant foxtail, Setaria faberi); assay: Test A1 postemergence, Foxtail, Giant; details: Postemergence
Method in brief: as §1

[27] = 31 g ai/ha, 0 to 100 scale (0 no effect, 100 complete control), 10 days
[28] = 31 g ai/ha, 0 to 100 scale (0 no effect, 100 complete control)
[29] = 125 g ai/ha, 0 to 100 scale, 0 no effect, 100 complete control

Q: `Cc1cc(C)c(N(COC(=O)OC(C)C)S(=O)(=O)C(F)(F)F)cc1C1=NOC2CCCC12` (stereo not drawn) [Compound 314] was tested. Which “Plant response rating, Ragweed” value [1, 27] did it give?
A: 0

Q: And the “Plant response rating, Ragweed” value ([1]; 125 g ai/ha, 0 to 100 scale)?
A: 70

Q: And the “Plant response rating, Rice (0 to 100 scale, 0 is no effect, 100 is complete control)” value (rice (Oryza sativa))?
A: 25

Q: And the “Plant response rating, Oat, Wild” value [2, 28]?
A: 0

Q: What about the “Plant response rating, Oat, Wild” value [2, 29] of the same compound?
A: 0

Q: What about the “Plant response rating, Goosegrass” value [3, 27] of the same compound?
A: 60

Q: And the “Plant response rating, Goosegrass” value ([3]; 125 g ai/ha, 0 to 100 scale)?
A: 80

Q: What about the “Plant response rating, Wheat” value [4, 27] of the same compound?
A: 50

Q: And the “Plant response rating, Wheat” value ([4]; 125 g ai/ha, 0 to 100 scale)?
A: 70

Q: What about the “Plant response rating, Pigweed, Palmer” value [5, 28] of the same compound?
A: 70

Q: And the “Plant response rating, Pigweed, Palmer” value [5, 29]?
A: 70

Q: And the “Plant response rating, Soybean” value (soybean (Glycine max) [6]; [28])?
A: 20

Q: What about the “Plant response rating, Soybean” value (soybean (Glycine max) [6]; [29]) of the same compound?
A: 40

Q: What about the “Plant response rating, Ryegrass, Italian” value [7, 27] of the same compound?
A: 10

Q: What about the “Plant response rating, Ryegrass, Italian” value ([7]; 125 g ai/ha, 0 to 100 scale) of the same compound?
A: 70

Q: What about the “Plant response rating, Goosegrass” value [8, 28] of the same compound?
A: 80

Q: And the “Plant response rating, Goosegrass” value [8, 29]?
A: 90

Q: And the “Plant response rating, Blackgrass” value [9, 28]?
A: 0

Q: What about the “Plant response rating, Blackgrass” value [9, 29] of the same compound?
A: 20

Q: What about the “Plant response rating, Oat, Wild” value [10, 27] of the same compound?
A: 0

Q: What about the “Plant response rating, Oat, Wild” value ([10]; 125 g ai/ha, 0 to 100 scale) of the same compound?
A: 10

Q: What about the “Plant response rating, Ragweed” value [11, 28] of the same compound?
A: 0

Q: What about the “Plant response rating, Ragweed” value [11, 29] of the same compound?
A: 60

Q: What about the “Plant response rating, Pigweed, Palmer” value [12, 27] of the same compound?
A: 10

Q: What about the “Plant response rating, Pigweed, Palmer” value ([12]; 125 g ai/ha, 0 to 100 scale) of the same compound?
A: 60

Q: And the “Plant response rating, Wheat” value [13, 28]?
A: 0

Q: What about the “Plant response rating, Wheat” value [13, 29] of the same compound?
A: 50

Q: And the “Plant response rating, Kochia” value (kochia (Bassia scoparia) [14]; [27])?
A: 30

Q: And the “Plant response rating, Kochia” value (kochia (Bassia scoparia) [14]; 125 g ai/ha, 0 to 100 scale)?
A: 70

Q: And the “Plant response rating, Corn” value (corn (Zea mays) [15]; [28])?
A: 10

Q: What about the “Plant response rating, Corn” value (corn (Zea mays) [15]; [29]) of the same compound?
A: 40

Q: What about the “Plant response rating, Soybean” value (soybean (Glycine max) [16]; [27]) of the same compound?
A: 40

Q: What about the “Plant response rating, Soybean” value (soybean (Glycine max) [16]; 125 g ai/ha, 0 to 100 scale) of the same compound?
A: 50

Q: What about the “Plant response rating, Corn” value (corn (Zea mays) [17]; [27]) of the same compound?
A: 0

Q: What about the “Plant response rating, Corn” value (corn (Zea mays) [17]; 125 g ai/ha, 0 to 100 scale) of the same compound?
A: 30

Q: What about the “Plant response rating, Ryegrass, Italian” value [18, 28] of the same compound?
A: 40

Q: What about the “Plant response rating, Ryegrass, Italian” value [18, 29] of the same compound?
A: 90

Q: And the “Plant response rating, Foxtail, Giant” value [19, 28]?
A: 30

Q: And the “Plant response rating, Foxtail, Giant” value [19, 29]?
A: 90

Q: And the “Plant response rating, Kochia” value (kochia (Bassia scoparia) [20]; [28])?
A: 0

Q: And the “Plant response rating, Kochia” value (kochia (Bassia scoparia) [20]; [29])?
A: 70

Q: What about the “Plant response rating, Horseweed” value [21, 27] of the same compound?
A: 0

Q: What about the “Plant response rating, Horseweed” value ([21]; 125 g ai/ha, 0 to 100 scale) of the same compound?
A: 50

Q: And the “Plant response rating, Barnyardgrass (0 to 100 scale, 0 is no effect, 100 is complete control)” value [22]?
A: 98

Q: What about the “Plant response rating, Galium” value [23, 27] of the same compound?
A: 60

Q: And the “Plant response rating, Galium” value ([23]; 125 g ai/ha, 0 to 100 scale)?
A: 70

Q: And the “Plant response rating, Ducksalad (0 to 100 scale, 0 is no effect, 100 is complete control)” value [24]?
A: 90

Q: And the “Plant response rating, Blackgrass” value ([25]; 31 g ai/ha, 10 days)?
A: 0

Q: And the “Plant response rating, Blackgrass” value ([25]; 125 g ai/ha)?
A: 10

Q: And the “Plant response rating, Foxtail, Giant” value [26, 27]?
A: 10

Q: And the “Plant response rating, Foxtail, Giant” value ([26]; 125 g ai/ha, 0 to 100 scale)?
A: 30
